# Tested on: H929 multiple myeloma tumour line
# Assay: In vitro cytotoxicity (MTT, Microculture Tetrazolium Assay)
# Type: cell-based
# Details: Homo sapiens, NCI-H929; H929 cells, 48 hours exposure, cell viability
# Method: The cytotoxicity studies were carried out on the H929 multiple myeloma tumour line.
# The cells are distributed onto microplates and exposed to the test compounds for 48 hours.
# The cell viability is then quantified by a colorimetric assay, the Microculture Tetrazolium Assay (Cancer Res., 1987, 47, 939-942).
row,SMILES,IC50 [µM]
1,"CCOC(=O)OC(C)OC(=O)[C@@H](Cc1ccccc1OCc1ccnc(-c2ccccc2OC)n1)Oc1ncnc2sc(-c3ccc(F)cc3)c(-c3c(C)c(Cl)c(OCCN4CCN(C)CC4)c(Cl)c3C)c12 (stereo partly drawn) [Example 15, 1-[(ethoxycarbonyl)oxy]ethyl (2R)-2-{[5-{3,5-dichloro-2,6-dimethyl-4-[2-(4-methylpiperazin-1-yl)ethoxy]phenyl}-6-(4-fluorophenyl)thieno[2,3-d]pyrimidin-4-yl]oxy}-3-(2-{[2-(2-methoxyphenyl)pyrimidin-4-yl]methoxy}phenyl)propanoate]",0.068
2,"COc1ccccc1-c1nccc(COc2ccccc2C[C@@H](Oc2ncnc3sc(-c4ccc(F)cc4)c(-c4c(C)c(Cl)c(OCCN5CCN(C)CC5)c(Cl)c4C)c23)C(=O)OC(C)OC(=O)N(C)C)n1 (stereo partly drawn) [Example 17, 1-[(dimethylcarbamoyl)oxy]ethyl (2R)-2-{[5-{3,5-dichloro-2,6-dimethyl-4-[2-(4-methylpiperazin-1-yl)ethoxy]phenyl}-6-(4-fluorophenyl)thieno[2,3-d]pyrimidin-4-yl]oxy}-3-(2-{[2-(2-methoxyphenyl)pyrimidin-4-yl]methoxy}phenyl)propanoate]",0.702

# Molecular target: Mcl-1 protein (UniProtKB Q07820) (Homo sapiens, UniProt Q07820)
# Sequence (Q07820 whole entry): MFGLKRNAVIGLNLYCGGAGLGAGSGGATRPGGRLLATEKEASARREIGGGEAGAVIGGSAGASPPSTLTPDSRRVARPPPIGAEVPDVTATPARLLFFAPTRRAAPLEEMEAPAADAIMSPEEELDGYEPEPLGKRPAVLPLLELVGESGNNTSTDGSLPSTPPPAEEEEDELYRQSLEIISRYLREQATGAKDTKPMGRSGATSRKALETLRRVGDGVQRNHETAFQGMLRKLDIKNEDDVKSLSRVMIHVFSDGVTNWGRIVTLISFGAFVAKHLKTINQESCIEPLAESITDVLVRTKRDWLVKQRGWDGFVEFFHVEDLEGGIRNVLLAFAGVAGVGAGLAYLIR
# Assay: Inhibition of Mcl-1 by the fluorescence polarisation technique
# Type: binding
# Details: fluorescein labelled ligand 1 nM, Mcl-1 protein 5 nM, ~2 hours at room temperature; read-out: IC50 (μM) Mcl-1 FP
# Method: The relative binding potency of each compound was determined via Fluorescence Polarisation (FP). The method utilised a Fluorescein labelled ligand (Fluorescein-βAla-Ahx-A-REIGAQLRRMADDLNAQY-OH; mw 2,765) which binds to the Mcl-1 protein (such that Mcl-1 corresponds to the UniProtKB® primary accession number: Q07820) leading to an increased anisotropy measured in milli-polarisation (mP) units using a reader. The addition of a compound which binds competitively to the same site as the ligand will result in a greater proportion of unbound ligand in the system indicated by a decrease in mP units.
# An 11 point serial dilution of each compound was prepared in DMSO and 2 μl transferred into flat bottomed, low binding, 384-well plate (final DMSO concentration 5%). 38 μl of buffer (10 mM 4-(2-hydroxyethyl)-1-piperazineethanesulfonic acid [HEPES], 150 mM NaCl, 0.05% Tween 20, pH 7.4), containing the Fluorescein labelled ligand (final concentration 1 nM) and Mcl-1 protein (final concentration 5 nM) was then added.
# Assay plates were incubated ˜2 hours at room temperature before FP was measured on a […] Synergy2 reader (Ex. 528 nm, Em. 640 nm, Cut off 510 nm) and mP units calculated. The binding of increasing doses of test compound was expressed as a percentage reduction in mP compared to a window established between ‘5% DMSO only’ and ‘100% inhibition’ controls. 11-point dose response curves were plotted with XL-Fit software using a 4-Parameter Logistic Model (Sigmoidal Dose-Response Model) and the inhibitory concentrations that gave a 50% reduction in mP (IC50) were determined.
row,SMILES,IC50 [µM]
1,"COC(=O)OC(C)OC(=O)C(Cc1ccccc1OCc1ccnc(-c2ccccc2OC)n1)Oc1ncnc2sc(-c3ccc(F)cc3)c(-c3ccc(OCCN4CCN(C)CC4)c(Cl)c3C)c12 [Example 1, 1-[(methoxycarbonyl)oxy]ethyl (2R)-2-{[(5Sa)-5-{3-chloro-2-methyl-4-[2-(4-methylpiperazin-1-yl)ethoxy]phenyl}-6-(4-fluorophenyl)thieno[2,3-d]pyrimidin-4-yl]oxy}-3-(2-{[2-(2-methoxyphenyl)pyrimidin-4-yl]methoxy}phenyl)propanoate]",0.037
2,"CCOC(=O)OC(C)OC(=O)C(Cc1ccccc1OCc1ccnc(-c2ccccc2OC)n1)Oc1ncnc2sc(-c3ccc(F)cc3)c(-c3ccc(OCCN4CCN(C)CC4)c(Cl)c3C)c12 [Example 2, 1-[(ethoxycarbonyl)oxy]ethyl (2R)-2-{[(5Sa)-5-{3-chloro-2-methyl-4-[2-(4-methylpiperazin-1-yl)ethoxy]phenyl}-6-(4-fluorophenyl)thieno[2,3-d]pyrimidin-4-yl]oxy}-3-(2-{[2-(2-methoxyphenyl)pyrimidin-4-yl]methoxy}phenyl)propanoate]",0.361
3,"COc1ccccc1-c1nccc(COc2ccccc2CC(Oc2ncnc3sc(-c4ccc(F)cc4)c(-c4ccc(OCCN5CCN(C)CC5)c(Cl)c4C)c23)C(=O)OC(C)OC(=O)OC(C)C)n1 [Example 3, 1-{[(propan-2-yloxy)carbonyl]oxy}ethyl (2R)-2-{[(5Sa)-5-{3-chloro-2-methyl-4-[2-(4-methylpiperazin-1-yl)ethoxy]phenyl}-6-(4-fluorophenyl)thieno[2,3-d]pyrimidin-4-yl]oxy}-3-(2-{[2-(2-methoxyphenyl)pyrimidin-4-yl]methoxy}phenyl)propanoate]",0.292
4,"COc1ccccc1-c1nccc(COc2ccccc2CC(Oc2ncnc3sc(-c4ccc(F)cc4)c(-c4ccc(OCCN5CCN(C)CC5)c(Cl)c4C)c23)C(=O)OC(C)OC(=O)OC(C)(C)C)n1 [Example 4, 1-[(tert-butoxycarbonyl)oxy]ethyl (2R)-2-{[(5Sa)-5-{3-chloro-2-methyl-4-[2-(4-methylpiperazin-1-yl)ethoxy]phenyl}-6-(4-fluorophenyl)thieno[2,3-d]pyrimidin-4-yl]oxy}-3-(2-{[2-(2-methoxyphenyl)pyrimidin-4-yl]methoxy}phenyl)propanoate]",0.959
5,"COc1ccccc1-c1nccc(COc2ccccc2CC(Oc2ncnc3sc(-c4ccc(F)cc4)c(-c4ccc(OCCN5CCN(C)CC5)c(Cl)c4C)c23)C(=O)OC(C)OC(=O)OC2CCCC2)n1 [Example 5, 1-{[(cyclopentyloxy)carbonyl]oxy}ethyl (2R)-2-{[(5Sa)-5-{3-chloro-2-methyl-4-[2-(4-methylpiperazin-1-yl)ethoxy]phenyl}-6-(4-fluorophenyl)thieno[2,3-d]pyrimidin-4-yl]oxy}-3-(2-{[2-(2-methoxyphenyl)pyrimidin-4-yl]methoxy}phenyl)propanoate]",0.37
6,"CCCCCCCCOC(=O)OC(C)OC(=O)C(Cc1ccccc1OCc1ccnc(-c2ccccc2OC)n1)Oc1ncnc2sc(-c3ccc(F)cc3)c(-c3ccc(OCCN4CCN(C)CC4)c(Cl)c3C)c12 [Example 6, 1-{[(octyloxy)carbonyl]oxy}ethyl (2R)-2-{[(5Sa)-5-{3-chloro-2-methyl-4-[2-(4-methylpiperazin-1-yl)ethoxy]phenyl}-6-(4-fluorophenyl)thieno[2,3-d]pyrimidin-4-yl]oxy}-3-(2-{[2-(2-methoxyphenyl)pyrimidin-4-yl]methoxy}phenyl)propanoate]",0.51
7,"COc1ccccc1-c1nccc(COc2ccccc2CC(Oc2ncnc3sc(-c4ccc(F)cc4)c(-c4ccc(OCCN5CCN(C)CC5)c(Cl)c4C)c23)C(=O)OC(C)OC(=O)N(C)C)n1 [Example 7, 1-[(dimethylcarbamoyl)oxy]ethyl (2R)-2-{[(5Sa)-5-{3-chloro-2-methyl-4-[2-(4-methylpiperazin-1-yl)ethoxy]phenyl}-6-(4-fluorophenyl)thieno[2,3-d]pyrimidin-4-yl]oxy}-3-(2-{[2-(2-methoxyphenyl)pyrimidin-4-yl]methoxy}phenyl)propanoate]",0.438
8,"CCN(CC)C(=O)OC(C)OC(=O)C(Cc1ccccc1OCc1ccnc(-c2ccccc2OC)n1)Oc1ncnc2sc(-c3ccc(F)cc3)c(-c3ccc(OCCN4CCN(C)CC4)c(Cl)c3C)c12 [Example 8, 1-[(diethylcarbamoyl)oxy]ethyl (2R)-2-{[(5Sa)-5-{3-chloro-2-methyl-4-[2-(4-methylpiperazin-1-yl)ethoxy]phenyl}-6-(4-fluorophenyl)thieno[2,3-d]pyrimidin-4-yl]oxy}-3-(2-{[2-(2-methoxyphenyl)pyrimidin-4-yl]methoxy}phenyl)propanoate]",1.41
9,"COc1ccccc1-c1nccc(COc2ccccc2CC(Oc2ncnc3sc(-c4ccc(F)cc4)c(-c4ccc(OCCN5CCN(C)CC5)c(Cl)c4C)c23)C(=O)OC(C)OC(=O)N2CCOCC2)n1 [Example 9, 1-{[(2R)-2-{[(5Sa)-5-{3-chloro-2-methyl-4-[2-(4-methylpiperazin-1-yl)ethoxy]phenyl}-6-(4-fluorophenyl)thieno[2,3-d]pyrimidin-4-yl]oxy}-3-(2-{[2-(2-methoxyphenyl)pyrimidin-4-yl]methoxy}phenyl)propanoyl]oxy}ethyl morpholine-4-carboxylate]",0.52
10,"COCCNC(=O)OC(C)OC(=O)C(Cc1ccccc1OCc1ccnc(-c2ccccc2OC)n1)Oc1ncnc2sc(-c3ccc(F)cc3)c(-c3ccc(OCCN4CCN(C)CC4)c(Cl)c3C)c12 [Example 10, 1-{[(2-methoxyethyl)carbamoyl]oxy}ethyl (2R)-2-{[(5Sa)-5-{3-chloro-2-methyl-4-[2-(4-methylpiperazin-1-yl)ethoxy]phenyl}-6-(4-fluorophenyl)thieno[2,3-d]pyrimidin-4-yl]oxy}-3-(2-{[2-(2-methoxyphenyl)pyrimidin-4-yl]methoxy}phenyl) propanoate]",0.147
11,"COCCN(CCOC)C(=O)OC(C)OC(=O)C(Cc1ccccc1OCc1ccnc(-c2ccccc2OC)n1)Oc1ncnc2sc(-c3ccc(F)cc3)c(-c3ccc(OCCN4CCN(C)CC4)c(Cl)c3C)c12 [Example 11, 1-{[bis(2-methoxyethyl)carbamoyl]oxy}ethyl (2R)-2-{[(5Sa)-5-{3-chloro-2-methyl-4-[2-(4-methylpiperazin-1-yl)ethoxy]phenyl}-6-(4-fluorophenyl)thieno[2,3-d]pyrimidin-4-yl]oxy}-3-(2-{[2-(2-methoxyphenyl)pyrimidin-4-yl]methoxy}phenyl)propanoate]",0.551
12,"COC(=O)CN(C)C(=O)OC(C)OC(=O)C(Cc1ccccc1OCc1ccnc(-c2ccccc2OC)n1)Oc1ncnc2sc(-c3ccc(F)cc3)c(-c3ccc(OCCN4CCN(C)CC4)c(Cl)c3C)c12 [Example 12, 1-{[(2-methoxy-2-oxoethyl)(methyl)carbamoyl]oxy}ethyl (2R)-2-{[(5Sa)-5-{3-chloro-2-methyl-4-[2-(4-methylpiperazin-1-yl)ethoxy]phenyl}-6-(4-fluorophenyl)thieno[2,3-d]pyrimidin-4-yl]oxy}-3-(2-{[2-(2-methoxyphenyl)pyrimidin-4-yl]methoxy}phenyl)propanoate]",0.318
13,"COc1ccccc1-c1nccc(COc2ccccc2CC(Oc2ncnc3sc(-c4ccc(F)cc4)c(-c4ccc(OCCN5CCN(C)CC5)c(Cl)c4C)c23)C(=O)OCOP(=O)(O)O)n1 [Example 13, (phosphonooxy)methyl (2R)-2-{[(5Sa)-5-{3-chloro-2-methyl-4-[2-(4-methylpiperazin-1-yl)ethoxy]phenyl}-6-(4-fluorophenyl)thieno[2,3-d]pyrimidin-4-yl]oxy}-3-(2-{[2-(2-methoxyphenyl)pyrimidin-4-yl]methoxy}phenyl)propanoate]",0.0032
14,"CCOC(=O)OC(C)OC(=O)[C@@H](Cc1ccccc1OCc1ccnc(-c2ccccc2OC)n1)Oc1ncnc2sc(-c3ccc(F)cc3)c(-c3c(C)c(Cl)c(OCCN4CCN(C)CC4)c(Cl)c3C)c12 (stereo partly drawn) [Example 15, 1-[(ethoxycarbonyl)oxy]ethyl (2R)-2-{[5-{3,5-dichloro-2,6-dimethyl-4-[2-(4-methylpiperazin-1-yl)ethoxy]phenyl}-6-(4-fluorophenyl)thieno[2,3-d]pyrimidin-4-yl]oxy}-3-(2-{[2-(2-methoxyphenyl)pyrimidin-4-yl]methoxy}phenyl)propanoate]",0.453
15,"COc1ccccc1-c1nccc(COc2ccccc2C[C@@H](Oc2ncnc3sc(-c4ccc(F)cc4)c(-c4c(C)c(Cl)c(OCCN5CCN(C)CC5)c(Cl)c4C)c23)C(=O)OC(C)OC(=O)N(C)C)n1 (stereo partly drawn) [Example 17, 1-[(dimethylcarbamoyl)oxy]ethyl (2R)-2-{[5-{3,5-dichloro-2,6-dimethyl-4-[2-(4-methylpiperazin-1-yl)ethoxy]phenyl}-6-(4-fluorophenyl)thieno[2,3-d]pyrimidin-4-yl]oxy}-3-(2-{[2-(2-methoxyphenyl)pyrimidin-4-yl]methoxy}phenyl)propanoate]",1.54

# From patent US10227358B2, “Hydroxyester derivatives, a process for their preparation and pharmaceutical compositions containing them” (LES LABORATOIRES SERVIER, priority 2015, dated 2019)
